# Literature values, collected in patent publication US8252902B2, “Antibody targeting compounds” (The Scripps Research Institute, priority 2001, dated 2012).
# What was measured:
# [1] = test system: HIV primary isolates and laboratory-adapted strains
# VEGFR-2 = VEGFR-2 (Homo sapiens, UniProt P35968)
# [2] = test system: VEGF-mediated angiogenesis
# VEGFR-2, sequence (P35968 20-1356, species assumed): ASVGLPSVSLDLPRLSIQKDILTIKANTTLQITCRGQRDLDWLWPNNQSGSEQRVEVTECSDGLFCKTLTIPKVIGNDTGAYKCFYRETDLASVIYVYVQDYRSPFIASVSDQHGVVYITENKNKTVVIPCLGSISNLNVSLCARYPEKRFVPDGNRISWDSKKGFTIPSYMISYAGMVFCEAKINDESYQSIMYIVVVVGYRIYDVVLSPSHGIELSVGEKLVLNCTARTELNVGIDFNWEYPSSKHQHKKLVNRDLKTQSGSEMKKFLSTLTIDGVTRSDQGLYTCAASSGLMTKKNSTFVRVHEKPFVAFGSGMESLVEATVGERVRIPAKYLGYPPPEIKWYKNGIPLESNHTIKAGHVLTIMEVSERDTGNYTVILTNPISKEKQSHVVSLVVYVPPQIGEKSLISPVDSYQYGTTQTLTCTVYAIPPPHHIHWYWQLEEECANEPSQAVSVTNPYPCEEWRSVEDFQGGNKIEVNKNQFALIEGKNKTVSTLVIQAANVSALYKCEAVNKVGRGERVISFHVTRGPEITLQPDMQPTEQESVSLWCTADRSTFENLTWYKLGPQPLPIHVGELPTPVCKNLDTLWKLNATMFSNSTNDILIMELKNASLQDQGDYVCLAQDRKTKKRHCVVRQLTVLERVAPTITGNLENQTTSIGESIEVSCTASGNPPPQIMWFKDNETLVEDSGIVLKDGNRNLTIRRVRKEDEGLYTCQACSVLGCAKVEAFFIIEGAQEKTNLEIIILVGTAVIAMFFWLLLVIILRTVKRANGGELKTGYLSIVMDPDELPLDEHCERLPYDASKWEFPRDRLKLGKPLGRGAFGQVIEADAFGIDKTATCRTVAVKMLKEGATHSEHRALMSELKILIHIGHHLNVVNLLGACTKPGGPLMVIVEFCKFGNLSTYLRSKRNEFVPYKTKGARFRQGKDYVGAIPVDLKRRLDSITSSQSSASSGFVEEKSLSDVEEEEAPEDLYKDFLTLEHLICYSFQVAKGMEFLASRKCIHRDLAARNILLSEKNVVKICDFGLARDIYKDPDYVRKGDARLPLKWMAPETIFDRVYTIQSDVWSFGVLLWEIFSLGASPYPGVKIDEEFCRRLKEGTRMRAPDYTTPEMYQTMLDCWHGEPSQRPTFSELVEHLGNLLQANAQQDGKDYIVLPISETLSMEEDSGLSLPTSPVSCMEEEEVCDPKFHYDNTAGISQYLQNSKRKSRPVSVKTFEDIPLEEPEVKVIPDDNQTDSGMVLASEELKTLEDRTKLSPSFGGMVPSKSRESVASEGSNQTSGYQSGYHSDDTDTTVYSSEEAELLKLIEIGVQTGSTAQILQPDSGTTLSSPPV
Compound,anti-HIV activity [1],interference with VEGF binding to VEGFR-2 (VEGFR-2),inhibition of VEGF-mediated angiogenesis [2]
C=C(C)[C@@H]1CC[C@]2(C(=O)NCCCCCCCC(=O)N[C@@H](CC(C)C)[C@H](O)CC(=O)O)CC[C@]3(C)[C@H](CC[C@@H]4[C@@]5(C)CC[C@H](O)C(C)(C)[C@@H]5CC[C@]43C)[C@@H]12 [IC9564],can inhibit both HIV primary isolates and laboratory-adapted strains,–,–
ATWLPPR (homo sapiens) [ATWLPPR (SEQ ID NO: 2)],–,effectively interfered,inhibited
